Test results: patent US20090176711A1, “INHIBITORS OF AMYLOID PRECURSOR PROTEIN PROCESSING” (priority 2008, published 2009)
Entries after “also recorded” stand apart in the source; their conditions may differ. No end group written: not given here.

Columns and labels:
[1] = tested on: γ-secretase cleavage in KEK293 APP cells; experiment: Cell based γ-secretase assay (α-CTF Western); set-up: species or system human; settings: cells treated for 9 hours
Method: In order to test these peptides in the cell for their inhibitory effect on γ-secretase cleavage, a cell based assay was developed. After KEK293 APP cells were cultured in 6 well culture plates with 90% confluency, the cells were treated for 9 hours with N-[N-(3,5-difluorophenacetyl)-L-alanyl]-(S)-phenylglycine t-butyl ester (DAPT) (Dovey H F et al, J. Neurochemistry 2001;76:173-181), which is a known γ-secretase inhibitor, and complementary peptides. The cells in each well were lysed and these lysates were separated with 15% tris-tricine gel. Western analysis was performed with R1 antibody as primary antibody and goat anti-rabbit-HRP as secondary antibody.

[2] = tested on: cleavage of Substrate M by β-secretase; experiment: Inhibition of cleavage of Substrate M by β-secretase by complementary and deletion peptides (Examples 1, 5, 6; assay format not stated); assay type: biochemical; settings: for concentration dependent inhibitory activity, activity group: various concentrations, Substrate M (FIG. 8)
Method: So far we have focused on c-Sub M peptide. Serial deletions were made from N-terminus or C-terminus of c-Sub M (FIG. 5), and we investigated effect of the deletions on the cleavage of Substrate M. The optimum peptide/substrate ratio for inhibition on the cleavage of substrate was determined by observing the inhibition percentage at various peptide/substrate ratios (FIG. 4). Subsequently, the inhibitory activity of the deletion peptides were tested at 10 inhibitor/substrate ratio and the concentration of the Substrate M was 50 μM. Deletion of the first two amino acids from the N-terminus had little effect on the activity and deletion of five amino acids from the C-terminus of c-Sub M had little effect on the inhibitory activity (FIG. 6). Further deleted peptides were tested for inhibitory activity on the cleavage of Substrate M (FIG. 7).
The above-mentioned peptides that have inhibitory activity were tested at various concentrations for their inhibitory activities on their mutant substrate Substrate M (FIG. 8).

[3] = tested on: cleavage of Sub M by rhBACE1; experiment: HPLC analysis of the cleavage of Sub M by rhBACE1; assay type: biochemical, human; settings: 25-fold amount of inhibitor, 420 nM β-secretase
Method: Substrate M (100 μM) was preincubated with complementary peptides ([…]) in assay buffer (100 μl) overnight at RT. rhBACE (140 nM) in assay buffer was added and incubated for 11 hr at RT. Cleavage products of Substrate M by rhBACE were quantitated after separation by C-18 reversed-phase column chromatography (GRACE VyDAC).
One of the advantages of the APP inhibitor described in the present invention is that it is a peptide or a mimetic that bind to the β-secretase cleavage site of APP, thus not affecting other β-secretase substrates. To confirm the specificity of the inventive APP inhibitor, two different types of substrates were used, APP Sub M and ST6Ga11. Both substrates are cleaved by β-secretase under normal conditions and the effect of the inventive APP inhibitor on the substrate cleavage was monitored by HPLC (See the schematic diagram in FIG. 16.) To carry out these experiments, the concentration of β-secretase required for cleavage of both substrates was determined as shown in FIG. 17. For substantial cleavage of ST6Ga11 substrate, 420 nM of the enzyme was required. Therefore, 420 nM of β-secretase was used for the following experiment.
Reversed-phase HPLC was also used to analyze the products of enzyme action in vitro. […] The cleavage products were identified at 215 nm and quantitated by integrating the area under each peak. […]

[4] = tested on: γ-secretase (membrane fractions of N2a cells); experiment: γ-Secretase activity assay on membrane fractions of N2a cells; assay type: biochemical, mouse; settings: 200 μM peptide, 12.5 μM fluorogenic substrate, 1 hour preincubation
Method: Since γ-secretase is composed of four components, cloning of γ-secretase gene is impossible. Therefore, cell extracts were used as γ-secretase source. To obtain the cell extracts, after cell lysis with extraction buffer, the lysate was centrifuged at 10,000×g for 1 minute. Afterward, 2× reaction buffer and fluorogenic substrate was mixed and added to the cell lysate. Then, this mixture was incubated at 37° C. and γ-secretase activity was detected at excitation 335 to 355 nm and emission 495 to 510 nm.
γ-Secretase activity assay was performed on membrane fractions of N2a cells in the presence of several complementary peptides. After 12.5 μM fluorogenic substrate and 200 μM each of the complementary peptides were preincubated for 1 hour, γ-secretase was added to the mixture. In the course of time, the fluorogenic substrate was cleaved by the γ-secretase.

[5] = tested on: Substrate M (Sub M, SEVNLDAEFR; β-secretase cleavage site of APPsw); experiment: Binding of biotin-labeled Substrate M to immobilized complementary (HC) peptides; settings: for binding activity for Sub M: HC peptides chemically coupled to plate, bio-Sub M
Method: (§1) Complementary peptides (0.2, 2, 20, and 200 μM) were dissolved in phosphate buffered saline (PBS) (pH 7.4) and fixed to microtiter wells for 5 hr at 37° C. The wells were blocked with blocking buffer (3% BSA/PBS) for 1 hr at 37° C. Either N-terminally biotinylated Substrate W or M (20 μM) in blocking buffer was added and incubated for overnight at 4° C. Streptavidin-horseradish peroxidase in blocking buffer was added to detect resulting bound substrates. The plate was incubated for 2 hr at room temperature (RT), followed by addition of 3,3′,5,5′-tetramethyl-benzidine (TMB) as substrate for horseradish peroxidase for color reaction.
(§2) Reacti-Bind™ maleic anhydride-activated polystyrene plate (Pierce, IL, USA) was coated with 50 μl of HC peptide (200 μM in distilled water) by chemical coupling for 3 h at room temperature (RT) and washed three times with phosphate buffered saline (PBS) containing 0.05% tween 20 (PBST). The plate was blocked with blocking buffer (0.5% gelatin in PBS) for 1 h at RT. After discarding blocking buffer, biotinylated BACE1 substrates (200 μM) in blocking buffer was applied on the plate and incubated for 2.5 h at RT. Each well was washed three times with PBST. The bound biotinylated BACE1 substrates were detected by incubation with streptavidin-horseradish peroxidase (Str-HRP, 125 mU/ml in blocking buffer) for 2 h at RT. Color reaction was carried out with 50 μl of 3,3′,5,5′-Tetramethylbenzidine Liquid Substrate (Sigma-Aldrich, MO, USA). After stopping the reaction by addition of an equal volume of 1 N HCl, absorbance at 450 nm was read in an automated ELISA reader (EL 312e, Bio-Tek Instruments, VT, USA). All assays were carried out in duplicate.

HEK293-APP cells = experiment: Transport of peptides into cells (FITC label); assay type: cell-based, human
Source text: To overcome the problem of APP inhibitor's inability to penetrate across the cell membrane, APP inhibitors were coupled with oligo-arginine (R9 means 9 Arginines), which is known to be a transporter peptide. These coupled peptides were labeled with FITC (Fluorescein isothiocyanate) using a linker AHX (aminohexanoic acid) to investigate whether the inhibitors pass through the cell membrane. FITC-AHX-c-Sub M-R9 and FITC-AHX-c-Sub MΔN1C1-R9 were made.
Oligo-arginine coupled APP inhibitors that were labeled with FITC were added to HEK293-APP cells to see whether the peptides pass through the cell membrane.

rhBACE1 = molecular target: T1, rhBACE1 (Homo sapiens, UniProt P56817); experiment: ELISA binding of rhBACE1 to immobilized c-Sub M
T1 construct: purchased R&D Systems, Inc
T1 sequence (P56817 46-501): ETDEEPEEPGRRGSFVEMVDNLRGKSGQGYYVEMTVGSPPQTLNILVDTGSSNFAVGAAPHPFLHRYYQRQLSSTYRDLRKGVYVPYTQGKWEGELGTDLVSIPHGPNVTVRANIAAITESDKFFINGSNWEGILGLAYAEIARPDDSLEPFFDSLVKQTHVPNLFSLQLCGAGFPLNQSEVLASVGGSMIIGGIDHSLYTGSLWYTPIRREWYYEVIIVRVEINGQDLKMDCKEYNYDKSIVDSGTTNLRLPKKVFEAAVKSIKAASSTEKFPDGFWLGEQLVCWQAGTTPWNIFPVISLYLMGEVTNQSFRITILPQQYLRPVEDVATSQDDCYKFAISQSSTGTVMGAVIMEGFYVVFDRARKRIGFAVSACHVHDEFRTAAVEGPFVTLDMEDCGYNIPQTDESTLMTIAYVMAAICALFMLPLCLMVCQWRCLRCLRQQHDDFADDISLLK
Source text: In one embodiment of the present invention, four HC decapeptides targeted to either wild type APP or APPsw may be designed. […] Therefore, there is possibility that c-Sub M or any compounds derived from c-Sub M may inhibit production of Aβ from wild type APP in cells.

[6] = molecular target: T2, Substrate W (Sub W, SEVKMDAEFR; β-secretase cleavage site of wild type APP) (Homo sapiens, UniProt P05067); experiment: Binding of biotin-labeled Substrate W to immobilized complementary (HC) peptides
T2 construct: […]; purchased Peptron, Inc; host or cells: chemical synthesis
Method: as §1
In particular, for Substrate W, complementary peptides (200 μM) dissolved in phosphate buffered saline (PBS) (pH 7.4) were chemically coupled to Reacti-Bind Maleic Anhydride Activated Polystyrene wells (Pierce Biotechnology, Inc.) for overnight at room temperature (RT). Remaining active sites of the plate were inactivated by adding ethanolamine (1 M) for 1 hr at RT. The wells were blocked with blocking buffer (3% BSA/PBS) for 1 hr at RT. N-terminally biotinylated Substrate W (20 μM) in blocking buffer was added and incubated for 3 hr at RT. Streptavidin-horseradish peroxidase in blocking buffer was added to detect resulting bound substrates. The plate was incubated for 2 hr at room temperature (RT), followed by addition of 3,3′,5,5′-tetramethyl-benzidine (TMB) as substrate for horseradish peroxidase for color reaction.
as §2

[7] = tested on: APP processing in HEK293-APP cells; experiment: APP inhibitor activity on HEK293-APP cells (βCTF Western blot); assay type: cell-based, human; settings: γ-secretase inhibitor and cholesterol added
Method: In the neuronal cells of the brain, APP is processed by α-secretase or β-secretase. To investigate the effects of the inhibitors on the cell, a cell based assay system was developed as described in FIG. 10. C-terminal fragment of APP remaining on the cell membrane was detected by Western blot. The resulting C-terminal fragments, αCTF or βCTF are further processed by γ-secretase. However, if the cells are treated with the γ-secretase inhibitor, this processing is blocked. As a result, αCTF or βCTF accumulate in the cell. If β-secretase inhibitor or APP inhibitor is added, this processing is blocked and βCTF disappears.
In addition, γ-secretase inhibitor and cholesterol were added to the cells to increase βCTF level. Commercially available peptide-based β-secretase inhibitor was included as control (Lane 6, FIG. 11). To detect the N-terminal fragment of β-amyloid which is a product of APP processing, 6E10 antibody was employed. […] Recently, it has been reported that the commercially available peptide-based inhibitor had to be linked to an oligoarginine transporter peptide to have inhibitory activity against cells. Therefore, mimetic approach is adopted to produce cell permeable analogs. (Chang et al. J. Neurochemistry 2004; 89:1409-1416).
After confirming the ability of the oligo-arginine coupled APP inhibitors to enter the cells, the inhibitors were applied to HEK293-APP cells overexpressing APP to test their inhibitory activities on APP processing. […] This inhibitor started to show significant inhibitory activity beginning from 0.1 μM (lower panel).

Compound: C[C@H](NC(=O)Cc1cc(F)cc(F)c1)C(=O)N[C@H](C(=O)OC(C)(C)C)c1ccccc1 [DAPT, N-[N-(3,5-difluorophenacetyl)-L-alanyl]-(S)-phenylglycine t-butyl ester]
- inhibition of γ-secretase activity in cells (α-CTF accumulation) [1]: inhibits γ-secretase activity very effectively

Compound: FCIQIHF (also: cyclic, mode of cyclisation not given here) [c-Sub M ΔN2C1]
- concentration dependent inhibitory activity, activity group [2]: most active group
- Sub M cleavage blocked [3]: about 60%

Compound: PQQYRCHRQR [rCh2 (3′→5′)]
- inhibitory effect on γ-secretase activity [4]: about 80%

Compound: SEFCIQIHFR-NH2 [c-Sub M, SEFCIQIHFR]
- binding activity for Sub M [5]: highest binding
- binding activity for Sub M ([5]; listed as c-Sub): bound
- binding to Substrate M ([5]; complementary peptide immobilized, biotin-labeled Substrate M): binds to Sub M appreciably and bind and binds its substrate Sub M
- absorbance in binding test ([5]; substrate not specified): high absorbance
- transport into the cells (HEK293-APP cells): does not enter the cells
- inhibition of cleavage of Substrate M by β-secretase ([2]; FIG. 4): inhibit cleavage
- concentration dependent inhibitory activity, activity group [2]: less activity
- binding to rhBACE1 (rhBACE1): does not bind to rhBACE1
- binding to Sub W relative to c-Sub W ([6]; HC peptides chemically coupled, bio-Sub W): 4 fold
- binding to Substrate W ([6]; complementary peptide immobilized, biotin-labeled Substrate W): binds the wild type substrate Sub W efficiently
- inhibitory activity on APP processing (βCTF) [7]: does not inhibit the processing of APP in cells; also recorded: none of the inhibitors tested showed inhibitory activity
